We go through 23 compounds from PMC6299220 (mBio, 2018).

SMILES strings stand for the structures. Values after ≈ are worked out from the molar mass of the structure shown.

This assay relates to M. tuberculosis H37Rv. The experiment in a line: microbe, parasite or virus in culture. The format is cell-based, Mycobacterium tuberculosis. Particulars: Mycobacterium tuberculosis, H37RV.
Take `Cn1ncc2ccc(NS(=O)(=O)Cc3ccccc3)cc21` [5a-21, N-(1-Methyl-1H-indazol-6-yl)-1-phenylmethanesulfonamide]: the MIC was above 100 µM.

For `Cn1ncc2ccc(NS(=O)(=O)C3CCC3)cc21` [5a-24, N-(1-Methyl-1H-indazol-6-yl)cyclobutanesulfonamide], the MIC is above 100 µM.

As to `CC(C)S(=O)(=O)Nc1ccc2cnn(C)c2c1` [5a-11, N-(1-Methyl-1H-indazol-6-yl)propane-2-sulfonamide], the MIC is above 100 µM.

`COc1c(N2C[C@@H]3CCCN[C@@H]3C2)c(F)cc2c(=O)c(C(=O)O)cn(C3CC3)c12` [Moxi, moxifloxacin] displayed an MIC of 0.03 µM (≈ 0.012 µg/mL).

Compound `CCCCS(=O)(=O)N(C)c1ccc2cnn(C)c2c1` [5e, N-Methyl-N-(1-methyl-1H-indazol-6-yl)butane-1-sulfonamide] gave an MIC above 100 µM.

In turn, `CCS(=O)(=O)Nc1ccc2cnn(C)c2c1` [5a-9, N-(1-Methyl-1H-indazol-6-yl)ethanesulfonamide] showed an MIC above 100 µM.

`CC(C)=CCC/C(C)=C/CNCCNC1C2CC3CC(C2)CC1C3` (centres unmarked) [SQ109]: the MIC was 0.8 µM (≈ 0.264 µg/mL).

In the case of `CCCS(=O)(=O)Nc1ccc2cnn(C)c2c1` [5a-10, N-(1-Methyl-1H-indazol-6-yl)propane-1-sulfonamide], the MIC was 12.5 µM (≈ 3.17 µg/mL).

`COc1nc2ccc(Br)cc2cc1[C@@H](c1ccccc1)[C@@](O)(CCN(C)C)c1cccc2ccccc12` [BDQ, bedaquiline] yielded an MIC of 1 µM (≈ 0.556 µg/mL).

With `CC(C)CCCS(=O)(=O)Nc1ccc2cnn(C)c2c1` [5a-19, 4-Methyl-N-(1-methyl-1H-indazol-6-yl)pentane-1-sulfonamide], the MIC was above 100 µM.

The compound `O=[N+]([O-])c1cn2c(n1)OC[C@@H](OCc1ccc(OC(F)(F)F)cc1)C2` [PA824] showed an MIC of 0.1 µM (≈ 0.0359 µg/mL).

Regarding `Cn1ncc2ccc(NS(=O)(=O)C3CCC(C(F)(F)F)CC3)cc21` (centres unmarked) [5a-27, N-(1-Methyl-1H-indazol-6-yl)-4-(trifluoromethyl)cyclohexane-1-sulfonamide], the MIC was above 100 µM.

On to `CCCCNC(=O)Nc1ccc2cnn(C)c2c1` [5b-2, 1-Butyl-3-(1-methyl-1H-indazol-6-yl)urea], for which the MIC was above 100 µM.

`Cn1ncc2ccc(NS(=O)(=O)C3CC3)cc21` [5a-23, N-(1-Methyl-1H-indazol-6-yl)cyclopropanesulfonamide] had an MIC above 100 µM.

`Cn1ncc2ccc(NS(=O)(=O)C3CCCCC3)cc21` [5a-26, N-(1-Methyl-1H-indazol-6-yl)cyclohexanesulfonamide] registered an MIC of 12.5 µM (≈ 3.67 µg/mL).

`Cn1ncc2ccc(NS(=O)(=O)CC3CCCCC3)cc21` [5a-29, 1-Cyclohexyl-N-(1-methyl-1H-indazol-6-yl)methanesulfonamide]: the MIC was above 100 µM.

As to `Cn1ncc2ccc(NS(=O)(=O)C3CCCC3)cc21` [5a-25, N-(1-Methyl-1H-indazol-6-yl)cyclopentanesulfonamide], the MIC was above 100 µM.

In turn, `Cc1ccc(S(=O)(=O)Nc2ccc3cnn(C)c3c2)cc1` [5a-20, 4-Methyl-N-(1-methyl-1H-indazol-6-yl)benzenesulfonamide] showed an MIC of 50 µM (≈ 15.1 µg/mL).

As for `CCc1cc(C(N)=S)ccn1` [ETH, ethionamide], the MIC amounted to 25 µM (≈ 4.16 µg/mL).

`CC[C@@H](CO)NCCN[C@@H](CC)CO` [EMB, ethambutol] came in with an MIC of 0.78 µM (≈ 0.159 µg/mL).

`Cn1ncc2ccc(NS(=O)(=O)N3CCCCC3)cc21` [5a-28, N-(1-Methyl-1H-indazol-6-yl)piperidine-1-sulfonamide] showed an MIC above 100 µM.

`Cn1ncc2ccc(NS(C)(=O)=O)cc21` [5a-8, N-(1-Methyl-1H-indazol-6-yl)methanesulfonamide] yielded an MIC above 100 µM.

For `COCCC(C)CCS(=O)(=O)Nc1ccc2cnn(C)c2c1` (centres unmarked) [5a-16, 5-Methoxy-3-methyl-N-(1-methyl-1H-indazol-6-yl)pentane-1-sulfonamide], the MIC was above 100 µM.
